Among the data in the OligoGym collection are normalised inhibition (eCFP-eYFP dual reporter) values, retold here.

Oligonucleotides are written 5' to 3', each unit as a sugar letter and its base; * is a phosphorothioate linkage, no mark a phosphodiester; rarer units and linkages stand in square brackets, end groups in braces. Plain capitals give the bases only. d = 2'-deoxy (DNA); r = 2'-OH (RNA)
Further: test concentration or dose not given here.

One data set concerns the target UBE2H. Nature of the data set: reporter assay of Huesken 2005. The settings on record: siRNA. (In general: In a reporter assay the amount or activity of a reporter protein is the signal.)
Consider “sense rGrUrCrUrArGrArUrGrUrArArUrUrArArUrCrAdTdT / antisense rUrGrArUrUrArArUrUrArCrArUrCrUrArGrArCdAdC”, for which the normalised inhibition (eCFP-eYFP dual reporter) worked out at 106%.
The same measure, in the same setting: next, “sense rGrUrGrArArGrUrUrUrUrArUrGrGrArCrCrArCdTdT / antisense rGrUrGrGrUrCrCrArUrArArArArCrUrUrCrArCdTdA”: 63.8%; “sense rGrUrGrGrArCrCrUrArCrCrUrGrArUrArArArUdTdT / antisense rArUrUrUrArUrCrArGrGrUrArGrGrUrCrCrArCdTdC”: 77.9%; “sense rUrArCrCrArArUrArUrArUrUrUrGrArGrUrCrCdTdT / antisense rGrGrArCrUrCrArArArUrArUrArUrUrGrGrUrAdAdG”: 48.6%.
Same read-out and setting: as for “sense rUrArGrArUrGrUrArArUrUrArArUrCrArArArCdTdT / antisense rGrUrUrUrGrArUrUrArArUrUrArCrArUrCrUrAdGdA”, the figure is 46.5%.
Same read-out and setting: as for “sense rUrArUrArGrGrArUrUrCrArUrGrArArUrArArAdTdT / antisense rUrUrUrArUrUrCrArUrGrArArUrCrCrUrArUrAdGdA”, the figure is 67.9%; as for “sense rUrArUrCrCrUrArArCrCrCrCrArUrArGrArUrCdTdT / antisense rGrArUrCrUrArUrGrGrGrGrUrUrArGrGrArUrAdGdG”, 50.2%.
In the case of “sense rUrCrArGrUrUrArUrUrGrGrCrCrUrArUrCrCrUdTdT / antisense rArGrGrArUrArGrGrCrCrArArUrArArCrUrGrAdGdG”, the normalised inhibition (eCFP-eYFP dual reporter) was 66.6%.
On the same count and under the same terms, as for “sense rUrCrArUrCrGrArGrArGrUrArArArCrArUrGrAdTdT / antisense rUrCrArUrGrUrUrUrArCrUrCrUrCrGrArUrGrAdGdC”, the figure is 71.5%; as for “sense rUrGrArUrCrUrUrArCrCrArArUrArUrArUrUrUdTdT / antisense rArArArUrArUrArUrUrGrGrUrArArGrArUrCrAdTdA”, 68.4%.
On the same count and under the same terms, next, “sense rUrGrUrArCrCrUrCrCrArCrCrGrArCrCrArGrAdTdT / antisense rUrCrUrGrGrUrCrGrGrUrGrGrArGrGrUrArCrAdTdG”: 95.7%.
Still for that read-out and setting: next, “sense rUrGrUrArGrUrGrArArGrUrUrUrUrArUrGrGrAdTdT / antisense rUrCrCrArUrArArArArCrUrUrCrArCrUrArCrAdAdA”: 75.6%; “sense rUrUrArUrGrGrArCrCrArCrArArGrGrArArCrAdTdT / antisense rUrGrUrUrCrCrUrUrGrUrGrGrUrCrCrArUrArAdAdA”: 91.7%.

A further data set deals with RHOQ. Nature of the data set: reporter assay of Huesken 2005. The settings on record: siRNA.
For “sense rArArArUrCrArArUrUrArArCrArUrArUrUrArGdTdT / antisense rCrUrArArUrArUrGrUrUrArArUrUrGrArUrUrUdAdT”, the normalised inhibition (eCFP-eYFP dual reporter) stood at 46.2%.
Still for that read-out and setting: as for “sense rArArArUrGrArCrArGrCrCrUrUrArArArUrGrCdTdT / antisense rGrCrArUrUrUrArArGrGrCrUrGrUrCrArUrUrUdTdC”, the figure is 42.3%; as for “sense rArArArUrGrGrUrGrGrUrUrCrArCrArUrUrArAdTdT / antisense rUrUrArArUrGrUrGrArArCrCrArCrCrArUrUrUdCdT”, 85.8%; as for “sense rArArUrArUrArArGrCrArUrCrArCrCrUrUrCrCdTdT / antisense rGrGrArArGrGrUrGrArUrGrCrUrUrArUrArUrUdTdT”, 51.8%.
On the same count and under the same terms, as for “sense rArArUrGrCrUrCrArUrArUrCrArGrUrCrArCrAdTdT / antisense rUrGrUrGrArCrUrGrArUrArUrGrArGrCrArUrUdTdA”, the figure is 76%; as for “sense rArCrArCrUrArArArCrUrUrUrUrArUrArCrUrUdTdT / antisense rArArGrUrArUrArArArArGrUrUrUrArGrUrGrUdTdC”, 76.1%.
Still for that read-out and setting: next, “sense rArCrArGrArUrUrGrGrGrUrArArUrGrGrArArCdTdT / antisense rGrUrUrCrCrArUrUrArCrCrCrArArUrCrUrGrUdGdC”: 47.1%; “sense rArCrUrUrUrCrUrUrArUrUrUrArArUrUrUrUrGdTdT / antisense rCrArArArArUrUrArArArUrArArGrArArArGrUdTdA”: 43.6%.
With “sense rArGrArUrUrGrGrGrUrArArUrGrGrArArCrArCdTdT / antisense rGrUrGrUrUrCrCrArUrUrArCrCrCrArArUrCrUdGdT”, the normalised inhibition (eCFP-eYFP dual reporter) turned out to be 72%.
Same read-out and setting: as for “sense rArGrGrArUrGrUrArCrUrGrUrCrUrUrGrUrUrGdTdT / antisense rCrArArCrArArGrArCrArGrUrArCrArUrCrCrUdAdG”, the figure is 81.7%; as for “sense rArUrArArArArUrUrGrArArArGrGrArArUrUrGdTdT / antisense rCrArArUrUrCrCrUrUrUrCrArArUrUrUrUrArUdCdT”, 36.4%.
The same measure, in the same setting: next, “sense rArUrArArArUrCrArArUrUrArArCrArUrArUrUdTdT / antisense rArArUrArUrGrUrUrArArUrUrGrArUrUrUrArUdAdC”: 38.4%; “sense rArUrArArUrGrGrArUrGrCrArUrCrArGrArUrAdTdT / antisense rUrArUrCrUrGrArUrGrCrArUrCrCrArUrUrArUdCdT”: 80.8%.
Still for that read-out and setting: as for “sense rArUrCrArGrUrCrArCrArArArUrCrUrArGrGrAdTdT / antisense rUrCrCrUrArGrArUrUrUrGrUrGrArCrUrGrArUdAdT”, the figure is 75.3%; as for “sense rArUrCrUrUrArUrGrUrArArCrUrUrUrCrUrUrAdTdT / antisense rUrArArGrArArArGrUrUrArCrArUrArArGrArUdTdC”, 59.1%; as for “sense rArUrGrGrArArCrArCrUrArArArCrUrUrUrUrAdTdT / antisense rUrArArArArGrUrUrUrArGrUrGrUrUrCrCrArUdTdA”, 82.1%.
For the substance “sense rArUrGrGrArArUrCrUrUrArUrGrUrArArCrUrUdTdT / antisense rArArGrUrUrArCrArUrArArGrArUrUrCrCrArUdTdT”, the normalised inhibition (eCFP-eYFP dual reporter) was determined as 51.1%.
The same measure, in the same setting: next, “sense rArUrGrGrArUrGrCrArUrCrArGrArUrArArUrGdTdT / antisense rCrArUrUrArUrCrUrGrArUrGrCrArUrCrCrArUdTdA”: 82.5%; “sense rCrArArArUrCrUrArGrGrArUrGrUrArCrUrGrUdTdT / antisense rArCrArGrUrArCrArUrCrCrUrArGrArUrUrUrGdTdG”: 79.4%.
“sense rCrArArGrArArArUrGrGrUrGrGrUrUrCrArCrAdTdT / antisense rUrGrUrGrArArCrCrArCrCrArUrUrUrCrUrUrGdGdA”: the normalised inhibition (eCFP-eYFP dual reporter) was found to be 84.9%.
The same measure, in the same setting: next, “sense rCrArCrArUrUrArArArGrUrArUrCrArUrGrGrCdTdT / antisense rGrCrCrArUrGrArUrArCrUrUrUrArArUrGrUrGdAdA”: 62.4%; “sense rCrArGrArUrArArUrGrGrArUrGrCrArUrCrArGdTdT / antisense rCrUrGrArUrGrCrArUrCrCrArUrUrArUrCrUrGdAdT”: 80.4%; “sense rCrArGrArUrUrGrGrGrUrArArUrGrGrArArCrAdTdT / antisense rUrGrUrUrCrCrArUrUrArCrCrCrArArUrCrUrGdTdG”: 86.3%.
Take “sense rCrArUrGrCrArUrCrArGrArUrArArUrGrGrArUdTdT / antisense rArUrCrCrArUrUrArUrCrUrGrArUrGrCrArUrGdGdC”: the normalised inhibition (eCFP-eYFP dual reporter) stood at 72.3%.
On the same count and under the same terms, next, “sense rCrArUrUrUrArArArCrUrUrGrCrUrGrUrUrGrCdTdT / antisense rGrCrArArCrArGrCrArArGrUrUrUrArArArUrGdTdA”: 74.6%; “sense rCrArUrUrUrGrGrArUrGrUrCrUrUrCrUrUrUrCdTdT / antisense rGrArArArGrArArGrArCrArUrCrCrArArArUrGdTdC”: 73.6%; “sense rCrCrUrUrArUrGrUrArUrGrCrUrCrArArArUrGdTdT / antisense rCrArUrUrUrGrArGrCrArUrArCrArUrArArGrGdCdC”: 65.1%.
Same read-out and setting: next, “sense rCrUrArCrArUrUrUrArArArCrUrUrGrCrUrGrUdTdT / antisense rArCrArGrCrArArGrUrUrUrArArArUrGrUrArGdGdA”: 82.5%; “sense rCrUrCrArArArUrGrGrArArUrCrUrUrArUrGrUdTdT / antisense rArCrArUrArArGrArUrUrCrCrArUrUrUrGrArGdCdA”: 55.5%.
Same read-out and setting: as for “sense rCrUrGrGrArUrGrArCrUrGrGrCrCrArGrGrArAdTdT / antisense rUrUrCrCrUrGrGrCrCrArGrUrCrArUrCrCrArGdTdA”, the figure is 75.7%; as for “sense rCrUrGrUrGrGrArUrCrUrGrCrCrUrUrArUrUrGdTdT / antisense rCrArArUrArArGrGrCrArGrArUrCrCrArCrArGdCdA”, 79%; as for “sense rCrUrUrArUrGrUrArUrGrCrUrCrArArArUrGrGdTdT / antisense rCrCrArUrUrUrGrArGrCrArUrArCrArUrArArGdGdC”, 44%.
Turning to “sense rCrUrUrArUrUrUrArArUrUrUrUrGrGrUrCrUrGdTdT / antisense rCrArGrArCrCrArArArArUrUrArArArUrArArGdAdA”, the normalised inhibition (eCFP-eYFP dual reporter) was determined as 52.2%.
On to “sense rCrUrUrCrUrUrUrCrUrUrCrCrArArGrArArArUdTdT / antisense rArUrUrUrCrUrUrGrGrArArGrArArArGrArArGdAdC”, for which the normalised inhibition (eCFP-eYFP dual reporter) stood at 53.7%.
Same read-out and setting: next, “sense rGrArArArGrGrArArUrUrGrUrArUrArArArUrCdTdT / antisense rGrArUrUrUrArUrArCrArArUrUrCrCrUrUrUrCdAdA”: 51.4%.
Take “sense rGrArGrArGrUrCrUrArCrUrGrGrArUrGrArCrUdTdT / antisense rArGrUrCrArUrCrCrArGrUrArGrArCrUrCrUrCdTdC”: the normalised inhibition (eCFP-eYFP dual reporter) is 77.3%.
